According to ChEMBL document CHEMBL1159006, “Anti-HIV and cytotoxic alkaloids from Buchenavia capitata” (J Nat Prod, 1992):
Calls of active or inactive are those of the source. No cut-off for these calls is given here.

Key:
[1] = system: Human immunodeficiency virus 1; test: Antiviral activity against HIV1 in human CEM-SS cells after 6 days; format: functional, organism-based
CEM-SS = test: Cytotoxicity against human CEM-SS cells; format: cell-based
[2] = Cytotoxicity against human melanoma cells after 48 hrs by SRB assay; format: functional; details: Melanoma cell, read-out: LC50 (the source's name)
[3] = molecular target: Protease (Human immunodeficiency virus 1) (UniProt Q9YQ12); test: Inhibition of HIV1 protease expressed in Escherichia coli by immunoblotting
[4] = system: Human immunodeficiency virus 1; test: Antiviral activity against HIV1 RF in human MT2 cells; format: functional, organism-based
Escherichia coli [5] = test: DNA damaging activity against Escherichia coli BR513 containing lysogenic lambda-lacZ fusion phage at 1 mg/ml by biochemical prophage induction assay; format: functional, organism-based
Escherichia coli [6] = test: DNA damaging activity against Escherichia coli K12 at 1 mg/ml by SOS chromotest agar spot test; format: functional, organism-based
[7] = system: Human immunodeficiency virus 2; test: Antiviral activity against HIV2 NIH-DZ assessed as cytoprotection; format: functional, organism-based
[8] = molecular target: Human immunodeficiency virus type 1 reverse transcriptase (Human immunodeficiency virus 1) (UniProt Q72547); test: Inhibition of HIV1 reverse transcriptase
[9] = system: Human immunodeficiency virus 2; test: Inhibition of HIV2 reverse transcriptase
[10] = system: Human immunodeficiency virus 1; test: Antiviral activity against HIV1 3B in human H9 cells; format: functional, organism-based
[11] = system: Human immunodeficiency virus 1; test: Antiviral activity against HIV1 in human C8166 cells; format: functional, organism-based

Protease (Human immunodeficiency virus 1), sequence (Q9YQ12 as listed by the source): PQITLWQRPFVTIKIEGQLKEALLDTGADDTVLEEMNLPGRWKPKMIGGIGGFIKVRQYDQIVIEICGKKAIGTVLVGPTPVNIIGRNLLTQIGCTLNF

Structure (SMILES) | EC50 ([1]; Human immunodeficiency virus 1, CEM-SS, 144 h) [µM] | IC50 (CEM-SS) [µM] | CC50 [2] [nM] | Activity [3] | Activity [4] | Activity (Escherichia coli [5]) | Activity (Escherichia coli [6]) | Activity [7] | Activity [8] | Activity [9] | Activity [10] | Activity [11] | Activity [1] [%]
O=c1cc(-c2ccccc2)oc2c(C3CCCCN3)c(O)cc(O)c12 (stereo not given) | 142 | 142 | – | – | – | – | – | – | – | – | – | – | –
CN1CCCCC1c1c(O)cc(O)c2c(=O)cc(-c3ccccc3)oc12 (stereo not given) | – | 0.66 | 100 | inactive | inactive | inactive | inactive | inactive | inactive | inactive | inactive | inactive | –
COc1cc(O)c(C2CCCCN2C)c2oc(-c3ccccc3)cc(=O)c12 (stereo not given) [BUCHENAVIANINE] | – | 5.7 | – | – | – | – | – | – | – | – | – | – | <50
